How the values were obtained:
[1] = molecular target: human ERG (hERG) K+ channel (Homo sapiens, UniProt Q12809); assay: hERG channel [3H]astemizole binding assay; conditions: HEK293 cells expressing cloned hERG, [3H]astemizole 2 nM; read-out: Ki for hERG K+ channel
Description: Blockade of K^+-channel conductance in the heart is associated with cardiotoxicity in the form of QT-wave prolongation. The affinity (Ki) of the exemplified nociceptin receptor antagonists for the human ERG (hERG) K^+ channel is determined in HEK293 cells expressing cloned hERG using the hERG channel antagonist radioligand [3H]astemizole (2 nM final assay concentration) according to well known procedures (see for example Finlayson K, et al. (Eur J Pharmacol. 412(3):203-12, 2001) [3H]Astemizole binding assays are performed at the contract research company Cerep (Paris France) according to standard procedures.

5-HT2A = 5-HT2A (Homo sapiens, UniProt P28223); assay: Radioligand binding selectivity
Description: (§1) Radioligand binding assays are commonly used to determine the affinity (Ki) or potency of a compound to bind to a particular receptor or target protein. A filtration-based [3H]-OFQ/nociceptin receptor binding assay is developed based on previous assay formats (Ardati A, Henningsen R A, Higelin J, Reinscheid R K, Civelli O, Monsma F J Jr. Mol. Pharmacol. 1997 May; 51(5):816-24.) with minor modifications. [3H]-OFQ/nociceptin binding assays are carried out in deep-well 96-well plates. [^3H]OFQ (final assay concentration 0.2 nM) competition studies are carried out with 5-10 μg of membrane protein (isolated from Chinese hamster ovary cells (CHO cells) expressing cloned human ORL1 receptors) in a final assay volume of 0.5 mL of buffer containing 20 mM HEPES, pH 7.4, 5 mM MgCl2, 1 mM EGTA, 100 mM NaCl, 0.1% bovine serum albumin. Samples are incubated for 60 min. at room temperature, which is found to be optimal for competition assays. The assays are terminated by filtration through glass fiber filters (Wallac filtermat A) [pretreated with 0.3% polyethylenimine (Sigma) for 1 hr] on a Tometc cell harvester, and the filters are washed three times with 5 mL of ice-cold 50 mM Tris.HCl, pH 7.4. Filtermats are then dried and imbedded with Meltilex scintillant A and the radioactivity counted in a Wallac Microbeta scintillation counter. Specific binding is determined by displacement with 100 nM unlabeled nociceptin. Curves are plotted as the percent of specific binding and IC50 values are determined using a sigmoidal dose response curve with variable slope. K, values are calculated from the IC50 by the equation of Cheng and Prusoff (Cheng, Y. C., and Prusoff, W. H., Biochem. Pharmacol. 22, 3099-3108 (1973)) where Ki=IC50×(1+D×Kd^−1)^−1. Similarly, Ki for the mu, kappa and delta opioids, serotonin, adrenergic, and muscarinic receptors may be determined using membranes expressing the desired receptor and appropriate corresponding radioligand competitor molecules.

5-HT4 = 5-HT4 (Homo sapiens, UniProt Q13639); assay: Radioligand binding selectivity
Description: as §1

Muscarinic M5 = Muscarinic M5 (Homo sapiens, UniProt P08912); assay: Radioligand binding selectivity
Description: as §1

Muscarinic M4 = Muscarinic M4 (Homo sapiens, UniProt P08173); assay: Radioligand binding selectivity
Description: as §1

5-HT7 = 5-HT7 (Homo sapiens, UniProt P34969); assay: Radioligand binding selectivity
Description: as §1

Mu Opioid = Mu Opioid (Homo sapiens, UniProt P35372); assay: Radioligand binding selectivity
Description: as §1

5-HT1A = 5-HT1A (Homo sapiens, UniProt P08908); assay: Radioligand binding selectivity
Description: as §1

5-HT6 = 5-HT6 (Homo sapiens, UniProt P50406); assay: Radioligand binding selectivity
Description: as §1

Muscarinic M2 = Muscarinic M2 (Homo sapiens, UniProt P08172); assay: Radioligand binding selectivity
Description: as §1

5-HT5 = 5-HT5 (Homo sapiens, UniProt P47898); assay: Radioligand binding selectivity
Description: as §1

5-HT2C = 5-HT2C (Homo sapiens, UniProt P28335); assay: Radioligand binding selectivity
Description: as §1

Kappa Opioid = Kappa Opioid (Homo sapiens, UniProt P41145); assay: Radioligand binding selectivity
Description: as §1

[2] = molecular target: T1, cloned human ORL1/nociceptin receptors (Homo sapiens, UniProt P41146); assay: Functional blockade of agonist-mediated G-protein activation, GTP-γ-[35S] binding; format: biochemical
T1 construct: expressed in transfected cells
Source text: Agonist-mediated stimulation of G-protein coupled receptors results in the activation of membrane associated Gαβγ-protein heterotrimer complexes, and represents the first step in the transduction of extracellular signals to modification of intracellular pathways. The first step in activation of receptor-mediated activation of Gαβγ-proteins heterotrimer is the exchange of Gα subunit bound guanosine diphoshpate (GDP) for guanosine triphosphate (GTP). The binding of GTP to the Gα subunit causes dissociation of the heterotrimer subunits, Gβ and Gγ, resulting in the modulation of several intracellular signaling cascades. Measurement of receptor-mediated G-protein activation can be measured using the non-hydrolyzable radiolabeled analog of GTP, GTP-γ-[35S]. Utilizing this methodology, antagonist affinity (Kb) is measured in membranes expressing cloned human ORL1/nociceptin receptors using a GTP-γ-[35S] binding assay according to previously described protocols with minor modifications (DeLapp et al., J Pharmacol Exp Ther. 1999 May; 289(2):946-55; Ozaki et al., Eur J Pharmacol. 2000 Aug. 18; 402(1-2):45-53). Assays are conducted in a 200-μl volume with the following buffer composition: 100 mM NaCl, 20 mM HEPES, 5 mM MgCl2, 1 mM EDTA, 0.1% BSA, 3 μM GDP, 0.5 nM [^35S]GTPγS. ORL1 receptor membrane suspension is added at a concentration of 20 μg protein per well and receptor stimulation is achieved using 300 nM nociceptin/OFQ. Wheat germ agglutinin coated SPA beads (Amersham, Arlington Hts., Ill.) are added at 1 mg per well to detect membrane-bound [^35S]GTPγS. Plates are sealed and incubated for 2 hr. at room temperature. Plates are then placed at 4° C. overnight to allow the SPA beads to settle and then counted in a Wallac Microbeta. Specific [^35S]GTPγS binding is determined as the difference in CPM observed in the absence and presence of 10 μM unlabeled GTPγS. Data are plotted as the percent of specific [^35S]GTPγS bound. Curves are plotted as the percent of specific binding and IC50 values are determined using a sigmoidal dose response curve with variable slope. Antagonist affinity (Kb) is estimated according to DeLapp et al., 1999 using a modification of the equation of Cheng and Prusoff (1973) where Kb=IC50×(1+D×EC50^−1)^−1.

Chain of 5-HT7 (P34969 whole entry, species assumed): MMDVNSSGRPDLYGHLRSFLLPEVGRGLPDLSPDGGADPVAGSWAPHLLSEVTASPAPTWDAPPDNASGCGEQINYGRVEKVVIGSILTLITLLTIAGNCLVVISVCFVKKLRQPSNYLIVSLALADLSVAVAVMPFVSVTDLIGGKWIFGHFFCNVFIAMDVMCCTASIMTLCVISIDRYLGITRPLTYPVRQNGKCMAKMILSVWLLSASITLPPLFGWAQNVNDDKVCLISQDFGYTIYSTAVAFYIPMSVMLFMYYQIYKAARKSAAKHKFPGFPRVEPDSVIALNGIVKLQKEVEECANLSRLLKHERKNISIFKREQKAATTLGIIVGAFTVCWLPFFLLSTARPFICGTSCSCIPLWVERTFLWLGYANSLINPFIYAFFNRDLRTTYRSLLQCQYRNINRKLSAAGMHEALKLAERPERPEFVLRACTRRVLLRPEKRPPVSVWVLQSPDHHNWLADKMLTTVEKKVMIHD
T1 sequence (P41146 whole entry): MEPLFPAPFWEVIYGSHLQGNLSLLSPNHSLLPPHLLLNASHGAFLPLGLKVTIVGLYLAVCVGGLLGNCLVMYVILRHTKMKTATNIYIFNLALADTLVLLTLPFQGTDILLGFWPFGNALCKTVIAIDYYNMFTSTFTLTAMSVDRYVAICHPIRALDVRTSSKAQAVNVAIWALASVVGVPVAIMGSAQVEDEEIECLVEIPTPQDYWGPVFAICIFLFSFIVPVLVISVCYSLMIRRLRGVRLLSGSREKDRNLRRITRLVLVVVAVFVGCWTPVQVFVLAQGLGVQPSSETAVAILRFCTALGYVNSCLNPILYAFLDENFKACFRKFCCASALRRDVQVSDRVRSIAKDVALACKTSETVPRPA
Chain of 5-HT4 (Q13639 whole entry, species assumed): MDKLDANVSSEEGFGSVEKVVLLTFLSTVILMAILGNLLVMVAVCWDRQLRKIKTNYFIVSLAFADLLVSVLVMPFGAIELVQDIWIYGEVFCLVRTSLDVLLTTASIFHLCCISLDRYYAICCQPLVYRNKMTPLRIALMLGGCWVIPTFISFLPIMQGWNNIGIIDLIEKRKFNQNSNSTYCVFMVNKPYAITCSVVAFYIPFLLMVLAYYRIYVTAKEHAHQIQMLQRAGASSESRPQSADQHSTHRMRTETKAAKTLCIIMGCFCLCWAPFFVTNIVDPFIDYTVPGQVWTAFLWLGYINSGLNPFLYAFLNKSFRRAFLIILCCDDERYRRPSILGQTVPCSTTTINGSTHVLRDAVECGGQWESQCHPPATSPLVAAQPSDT
Chain of 5-HT1A (P08908 whole entry, species assumed): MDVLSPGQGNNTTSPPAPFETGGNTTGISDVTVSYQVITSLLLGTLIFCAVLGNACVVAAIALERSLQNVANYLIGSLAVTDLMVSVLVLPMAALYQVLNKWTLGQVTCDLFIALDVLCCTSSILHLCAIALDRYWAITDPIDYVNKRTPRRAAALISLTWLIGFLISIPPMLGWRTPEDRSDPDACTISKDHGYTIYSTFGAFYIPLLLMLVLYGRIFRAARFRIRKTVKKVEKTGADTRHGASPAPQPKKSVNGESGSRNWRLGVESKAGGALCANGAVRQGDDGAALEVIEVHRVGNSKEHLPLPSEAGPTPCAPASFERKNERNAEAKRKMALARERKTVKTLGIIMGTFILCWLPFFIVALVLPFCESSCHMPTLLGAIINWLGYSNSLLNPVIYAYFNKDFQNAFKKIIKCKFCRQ
Chain of 5-HT6 (P50406 whole entry, species assumed): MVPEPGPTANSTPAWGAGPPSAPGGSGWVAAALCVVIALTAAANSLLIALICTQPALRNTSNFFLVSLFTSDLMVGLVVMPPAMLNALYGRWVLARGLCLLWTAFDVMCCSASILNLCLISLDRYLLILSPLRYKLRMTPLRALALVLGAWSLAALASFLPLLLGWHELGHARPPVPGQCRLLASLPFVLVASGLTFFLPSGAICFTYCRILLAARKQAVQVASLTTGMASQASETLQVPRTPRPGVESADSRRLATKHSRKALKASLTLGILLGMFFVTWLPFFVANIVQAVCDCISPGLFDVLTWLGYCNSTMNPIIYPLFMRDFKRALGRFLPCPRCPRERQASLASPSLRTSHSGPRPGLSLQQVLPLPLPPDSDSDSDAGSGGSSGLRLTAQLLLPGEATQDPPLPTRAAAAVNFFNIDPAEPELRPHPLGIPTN
Chain of Mu Opioid (P35372 whole entry): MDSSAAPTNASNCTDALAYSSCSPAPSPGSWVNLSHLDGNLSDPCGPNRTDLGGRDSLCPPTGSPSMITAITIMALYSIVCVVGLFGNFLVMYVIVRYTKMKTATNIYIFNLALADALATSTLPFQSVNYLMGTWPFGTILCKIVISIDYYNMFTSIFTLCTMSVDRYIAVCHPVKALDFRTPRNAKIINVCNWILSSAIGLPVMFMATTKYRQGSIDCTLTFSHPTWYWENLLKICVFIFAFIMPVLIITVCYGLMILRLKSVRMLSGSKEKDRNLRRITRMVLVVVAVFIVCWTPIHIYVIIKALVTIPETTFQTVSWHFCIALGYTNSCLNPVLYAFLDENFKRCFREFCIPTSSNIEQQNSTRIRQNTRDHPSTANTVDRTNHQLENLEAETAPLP
Chain of Muscarinic M2 (P08172 whole entry): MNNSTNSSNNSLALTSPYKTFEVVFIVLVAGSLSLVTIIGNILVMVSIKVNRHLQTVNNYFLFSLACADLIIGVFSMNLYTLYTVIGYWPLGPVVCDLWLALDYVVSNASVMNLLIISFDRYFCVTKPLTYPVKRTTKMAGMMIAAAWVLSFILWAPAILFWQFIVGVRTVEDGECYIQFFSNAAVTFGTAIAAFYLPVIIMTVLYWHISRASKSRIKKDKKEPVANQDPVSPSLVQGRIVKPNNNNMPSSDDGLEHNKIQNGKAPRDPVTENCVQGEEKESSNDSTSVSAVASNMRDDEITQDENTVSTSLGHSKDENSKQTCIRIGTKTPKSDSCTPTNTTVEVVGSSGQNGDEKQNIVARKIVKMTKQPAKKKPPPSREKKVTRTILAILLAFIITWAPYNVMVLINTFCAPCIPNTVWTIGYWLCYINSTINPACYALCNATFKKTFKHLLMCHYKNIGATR
Chain of 5-HT2A (P28223 whole entry, species assumed): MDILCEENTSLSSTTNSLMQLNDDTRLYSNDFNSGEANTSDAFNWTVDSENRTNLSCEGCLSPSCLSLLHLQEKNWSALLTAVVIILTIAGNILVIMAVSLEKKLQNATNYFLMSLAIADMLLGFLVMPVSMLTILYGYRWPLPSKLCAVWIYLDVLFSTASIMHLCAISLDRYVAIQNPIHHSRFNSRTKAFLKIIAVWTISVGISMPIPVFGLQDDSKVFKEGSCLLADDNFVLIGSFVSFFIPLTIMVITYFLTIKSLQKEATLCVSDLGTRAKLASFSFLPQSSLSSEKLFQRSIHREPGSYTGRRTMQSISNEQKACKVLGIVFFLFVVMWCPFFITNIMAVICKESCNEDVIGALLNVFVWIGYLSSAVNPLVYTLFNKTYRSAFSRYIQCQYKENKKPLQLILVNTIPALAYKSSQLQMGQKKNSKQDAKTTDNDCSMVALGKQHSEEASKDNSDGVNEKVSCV
Chain of Kappa Opioid (P41145 whole entry): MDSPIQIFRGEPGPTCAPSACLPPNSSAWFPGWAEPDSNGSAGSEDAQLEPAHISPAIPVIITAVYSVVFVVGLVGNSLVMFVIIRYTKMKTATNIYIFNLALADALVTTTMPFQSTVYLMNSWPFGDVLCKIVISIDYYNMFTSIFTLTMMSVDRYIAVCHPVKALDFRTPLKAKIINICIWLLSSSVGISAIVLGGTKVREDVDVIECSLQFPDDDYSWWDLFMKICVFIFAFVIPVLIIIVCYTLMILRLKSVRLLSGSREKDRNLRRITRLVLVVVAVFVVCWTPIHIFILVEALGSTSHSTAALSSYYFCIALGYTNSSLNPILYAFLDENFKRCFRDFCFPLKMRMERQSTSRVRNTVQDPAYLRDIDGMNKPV
Chain of Muscarinic M5 (P08912 whole entry): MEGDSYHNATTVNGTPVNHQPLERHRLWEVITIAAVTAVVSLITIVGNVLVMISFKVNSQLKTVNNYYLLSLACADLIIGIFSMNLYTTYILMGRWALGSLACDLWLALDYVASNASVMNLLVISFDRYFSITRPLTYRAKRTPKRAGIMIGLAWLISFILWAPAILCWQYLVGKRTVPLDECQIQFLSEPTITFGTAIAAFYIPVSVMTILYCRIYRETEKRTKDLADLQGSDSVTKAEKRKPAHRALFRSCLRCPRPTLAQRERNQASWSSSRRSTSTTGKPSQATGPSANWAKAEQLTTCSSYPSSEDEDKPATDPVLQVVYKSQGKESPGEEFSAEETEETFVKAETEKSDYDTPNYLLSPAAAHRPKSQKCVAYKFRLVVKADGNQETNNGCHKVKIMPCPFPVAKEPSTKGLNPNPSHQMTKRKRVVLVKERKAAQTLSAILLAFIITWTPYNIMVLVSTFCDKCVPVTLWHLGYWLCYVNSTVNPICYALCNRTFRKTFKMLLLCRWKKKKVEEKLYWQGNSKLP
Chain of 5-HT2C (P28335 33-458, species assumed): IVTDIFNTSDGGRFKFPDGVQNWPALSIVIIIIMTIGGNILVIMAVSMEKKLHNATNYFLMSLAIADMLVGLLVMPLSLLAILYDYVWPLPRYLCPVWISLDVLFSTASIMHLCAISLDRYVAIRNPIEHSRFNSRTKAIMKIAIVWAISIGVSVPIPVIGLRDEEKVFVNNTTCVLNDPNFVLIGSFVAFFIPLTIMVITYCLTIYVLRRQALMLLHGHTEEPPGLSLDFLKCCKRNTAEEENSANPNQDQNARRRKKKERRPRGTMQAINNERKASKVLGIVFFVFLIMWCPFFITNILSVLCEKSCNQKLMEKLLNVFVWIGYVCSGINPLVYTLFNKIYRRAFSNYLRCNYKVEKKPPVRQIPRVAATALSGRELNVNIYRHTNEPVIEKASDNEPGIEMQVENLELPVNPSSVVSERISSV

## Cc1nn(-c2c(F)cccc2F)cc1CN1CCC2(CC1)OCC(F)(F)c1cc(Cl)sc12.O=C(O)C(O)C(O)C(=O)O [Example 2, 2-Chloro-1′-[[1-(2,6-difluorophenyl)-3-methyl-pyrazol-4-yl]methyl]-4,4-difluoro-spiro[5H-thieno[2,3-c]pyran-7,4′-piperidine] (L)-Tartrate]
[1]
  Ki: 2890 nM
5-HT2A
  Ki: > 7.18 µM
5-HT4
  Ki: > 1970 nM
Muscarinic M5
  Ki: 2800 nM
Muscarinic M4
  Ki: 6.36 µM
5-HT7
  Ki: > 3.98 µM
Mu Opioid
  Ki: > 467 nM
5-HT1A
  Ki: > 3.18 µM
5-HT6
  Ki: > 5.83 µM
Muscarinic M2
  Ki: > 8 µM
5-HT5
  Ki: > 9.02 µM
5-HT2C
  Ki: > 8.36 µM
Kappa Opioid
  Ki: > 458 nM
[2]
  Kb: 0.43 nM

Reference: patent US20120214784A1, “SPIROPIPERIDINE COMPOUNDS AS ORL-1 RECEPTOR ANTAGONISTS” (ELI LILLY AND COMPANY, priority 2009, published 2012)
